Test results: PMC5248971 (Science signaling, 2016)

Molecular target: T1, OpuCA (Staphylococcus aureus, UniProt A0A0H2XHM3)
T1 sequence (A0A0H2XHM3 1-408): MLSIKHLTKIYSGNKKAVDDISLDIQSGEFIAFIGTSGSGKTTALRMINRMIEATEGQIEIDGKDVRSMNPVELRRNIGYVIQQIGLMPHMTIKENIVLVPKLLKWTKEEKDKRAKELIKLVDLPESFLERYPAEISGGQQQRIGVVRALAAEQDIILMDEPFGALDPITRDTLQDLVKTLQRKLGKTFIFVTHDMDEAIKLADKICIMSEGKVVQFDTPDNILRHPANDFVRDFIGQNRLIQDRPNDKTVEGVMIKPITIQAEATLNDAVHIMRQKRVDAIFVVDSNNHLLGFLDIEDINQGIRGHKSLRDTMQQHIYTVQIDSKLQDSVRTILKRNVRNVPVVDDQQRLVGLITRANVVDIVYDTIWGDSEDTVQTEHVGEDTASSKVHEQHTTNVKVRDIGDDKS
Type: binding

Kd: 2460 ± 140 nM
SMILES: Nc1ncnc2c1ncn2[C@@H]1O[C@@H]2COP(=O)(O)O[C@H]3[C@@H](O)[C@H](n4cnc5c(N)ncnc54)O[C@@H]3COP(=O)(O)O[C@H]2[C@H]1O [c-di-AMP]
